Measured values from patent publication US10000476B2, “Pyridone derivative, pharmaceutical containing the same and methods of use thereof” (KAKEN PHARMACEUTICAL CO., LTD., priority 2011, dated 2018).

target: TACE (Homo sapiens (Human), UniProt P78536); experiment: TACE inhibition test (in vitro); type: biochemical; conditions: fluorescent synthetic substrate, 37° C., 1.5 hours
Procedure: The nucleotide sequence of TACE has been reported by Moss et al. (Moss, M. L. et al., Nature 1997, 385, 733-736). Accordingly, the cDNA of TACE was obtained according to the prescribed method from THP-1 cells or the like, and then incorporated the cDNA into an expression vector. Next, this vector was transformed into mammalian cells or insect cells, and TACE expression was obtained.
The TACE inhibition test was carried out by measuring TACE activity in the presence and the absence of the test substance using the thus-obtained TACE as an enzyme, and a fluorescent synthetic substrate Nma(N-methylanthranilic acid)-Leu-Ala-Gln-Ala-Val-Arg-Ser-Ser-Lys(Dnp(dinitrophenyl))-D-Arg-NH2 (SEQ ID NO: 1) including the TACE-cleaved sequence of a membrane-bound TNF as a substrate. The TACE inhibition test method is shown below.
Namely, 90 μL of an enzyme solution prepared with an assay buffer A (50 mM tris-hydrochloric acid buffer (pH 7.5) including 200 mM sodium chloride, 5 mM calcium chloride, 10 μM zinc sulfate, and 2 mg/mL bovine serum albumin) and 90 μL of a fluorescent synthetic substrate prepared with an assay buffer B (50 mM tris-hydrochloric acid buffer (pH 7.5) including 200 mM sodium chloride, 5 mM calcium chloride, 10 μM zinc sulfate, and 0.05% PLURONIC F-68) were mixed together, and reacted at 37° C. for 1.5 hours. Enzyme activity was then determined by measuring with a fluorescence intensity meter (Labsystems, Fluoroskan Ascent) at an excitation wavelength of 355 nm and a measurement wavelength of 460 nm.
From the enzyme activity in the presence or the absence of the test substance, the inhibition rate was determined, and the 50% inhibitiory concentration (IC50) of the test substance was calculated.

Sequence of TACE (P78536 215-824): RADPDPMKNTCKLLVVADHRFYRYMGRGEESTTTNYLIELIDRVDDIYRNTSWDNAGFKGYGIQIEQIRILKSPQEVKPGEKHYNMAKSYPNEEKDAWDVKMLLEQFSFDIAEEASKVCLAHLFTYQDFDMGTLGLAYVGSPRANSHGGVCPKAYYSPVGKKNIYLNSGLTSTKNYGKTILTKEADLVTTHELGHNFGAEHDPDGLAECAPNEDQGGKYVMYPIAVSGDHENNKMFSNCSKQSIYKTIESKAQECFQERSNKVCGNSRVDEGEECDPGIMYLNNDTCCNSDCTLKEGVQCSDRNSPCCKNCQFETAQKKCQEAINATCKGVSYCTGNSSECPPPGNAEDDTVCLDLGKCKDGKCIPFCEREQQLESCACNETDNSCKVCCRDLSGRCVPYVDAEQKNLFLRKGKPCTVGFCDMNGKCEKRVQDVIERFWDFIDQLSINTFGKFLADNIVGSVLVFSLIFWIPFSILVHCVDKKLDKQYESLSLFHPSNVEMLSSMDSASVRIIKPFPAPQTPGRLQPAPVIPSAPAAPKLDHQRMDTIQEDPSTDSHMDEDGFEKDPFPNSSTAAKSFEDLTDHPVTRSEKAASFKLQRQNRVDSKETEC

Row | Compound | IC50
1 | Cc1cccn(CC2(c3ccc4c(c3)OCO4)NC(=O)NC2=O)c1=O (centres unmarked) [Compound I-65] | < 0.1 µM
2 | O=C1NC(=O)C(Cn2cccc(Cl)c2=O)(c2cc3ccccc3o2)N1 (centres unmarked) [Compound I-51, 5-(benzofuran-2-yl)-5-[(3-chloro-2-oxopyridin-1(2H)-yl)methyl]imidazolidine-2,4-dione] | < 0.1 µM
3 | COc1cccc(Oc2ccc(C3(Cn4cccc(C)c4=O)NC(=O)NC3=O)cc2)c1 (centres unmarked) [Compound I-83] | < 0.1 µM
4 | Cc1cccn(CC2(c3ccc(Oc4ccc(Cl)cc4)cc3)NC(=O)NC2=O)c1=O (centres unmarked) [Compound I-82] | < 0.1 µM
5 | Cc1cccn(CC2(c3ccc(-c4nn[nH]n4)cc3)NC(=O)NC2=O)c1=O (centres unmarked) [Compound I-42, 5-[4-(2H-tetrazol-5-yl)phenyl]-5-[(3-methyl-2-oxopyridin-1(2H)-yl)methyl]imidazolidine-2,4-dione] | < 0.1 µM
6 | COc1ccc(C2(Cn3cccc(C)c3=O)NC(=O)NC2=O)c(OC)c1 (centres unmarked) [Compound I-18, 5-(2,4-dimethoxyphenyl)-5-[(3-methyl-2-oxopyridin-1(2H)-yl)methyl]imidazolidine-2,4-dione] | < 0.1 µM
7 | COc1ccc(F)cc1C1(Cn2cccc(C)c2=O)NC(=O)NC1=O (centres unmarked) [Compound I-69] | < 0.1 µM
8 | Cc1cccn(CC2(c3cccnc3)NC(=O)NC2=O)c1=O (centres unmarked) [Compound I-8, 5-[(3-methyl-2-oxopyridin-1(2H)-yl)methyl]-5-(pyridin-3-yl)imidazolidine-2,4-dione] | < 0.1 µM
9 | O=C1NC(=O)C(Cn2cccc(F)c2=O)(c2ccc(-c3ccccc3)cc2)N1 (centres unmarked) [Compound I-49, 5-([1,1′-biphenyl]-4-yl)-5-[(3-fluoro-2-oxopyridin-1(2H)-yl)methyl]imidazolidine-2,4-dione] | < 0.1 µM
10 | COCOc1ccc(C2(Cn3cccc(C)c3=O)NC(=O)NC2=O)cc1 (centres unmarked) [Compound I-13, 5-[4-(methoxymethoxy)phenyl]-5-[(3-methyl-2-oxopyridin-1(2H)-yl)methyl]imidazolidine-2,4-dione] | < 0.1 µM
11 | COc1ccncc1-c1ccc(C2(Cn3cccc(C)c3=O)NC(=O)NC2=O)cc1 (centres unmarked) [Compound I-91] | < 0.1 µM
12 | Cc1cccn(CC2(c3ccc4c(c3)OCCO4)NC(=O)NC2=O)c1=O (centres unmarked) [Compound I-59] | < 0.1 µM
13 | Cc1cccn(CC2(c3ccc(F)cc3F)NC(=O)NC2=O)c1=O (centres unmarked) [Compound I-61] | 0.1 to 1 µM
14 | Cc1cc(C2(Cn3cccc(C)c3=O)NC(=O)NC2=O)ccc1F (centres unmarked) [Compound I-30, 5-(4-fluoro-3-methylphenyl)-5-[(3-methyl-2-oxopyridin-1(2H)-yl)methyl]imidazolidine-2,4-dione] | < 0.1 µM
15 | O=C1NC(=O)C(Cn2cccc(CO)c2=O)(c2ccc(Cc3ccccc3)cc2)N1 (centres unmarked) [Compound I-151] | 0.1 to 1 µM
16 | Cc1cccn(CC2(c3cccc(F)c3)NC(=O)NC2=O)c1=O (centres unmarked) [Compound I-28, 5-(3-fluorophenyl)-5-[(3-methyl-2-oxopyridin-1(2H)-yl)methyl]imidazolidine-2,4-dione] | < 0.1 µM
17 | Cc1cccn(CC2(c3ccc4occc4c3)NC(=O)NC2=O)c1=O (centres unmarked) [Compound I-22, 5-(benzofuran-5-yl)-5-[(3-methyl-2-oxopyridin-1(2H)-yl)methyl]imidazolidine-2,4-dione] | < 0.1 µM
18 | O=C1NC(=O)C(Cn2cccc(Cl)c2=O)(c2ccccc2)N1 (centres unmarked) [Compound I-50, 5-[(3-chloro-2-oxopyridin-1(2H)-yl)methyl]-5-phenylimidazolidine-2,4-dione] | < 0.1 µM
19 | Cc1cccn(CC2(c3ccc(C4CCCCC4)cc3)NC(=O)NC2=O)c1=O (centres unmarked) [Compound I-66] | < 0.1 µM
20 | COc1ccccc1Oc1ccc(C2(Cn3cccc(C)c3=O)NC(=O)NC2=O)cc1 (centres unmarked) [Compound I-113] | < 0.1 µM
21 | Cc1cccn(CC2(c3ccc(C#Cc4ccccc4)cc3)NC(=O)NC2=O)c1=O (centres unmarked) [Compound I-106] | < 0.1 µM
22 | Cc1ccccc1Oc1ccc(C2(Cn3cccc(C)c3=O)NC(=O)NC2=O)cc1 (centres unmarked) [Compound I-35, 5-[(3-methyl-2-oxopyridin-1(2H)-yl)methyl]-5-[4-(o-tolyloxy)phenyl]imidazolidine-2,4-dione] | < 0.1 µM
23 | Cc1cccn(CC2(c3ccc(F)c(Cl)c3)NC(=O)NC2=O)c1=O (centres unmarked) [Compound I-126] | < 0.1 µM

The next lines start with the values.

Row | IC50 | Compound
24 | < 0.1 µM | COc1ccccc1-c1ccc(C2(Cn3cccc(C)c3=O)NC(=O)NC2=O)cc1 (centres unmarked) [Compound I-74]
25 | < 0.1 µM | COc1cc(F)ccc1C1(Cn2cccc(C)c2=O)NC(=O)NC1=O (centres unmarked) [Compound I-21, 5-(4-fluoro-2-methoxyphenyl)-5-[(3-methyl-2-oxopyridin-1(2H)-yl)methyl]imidazolidine-2,4-dione]
26 | < 0.1 µM | C=Cc1ccc(C2(Cn3cccc(C)c3=O)NC(=O)NC2=O)cc1 (centres unmarked) [Compound I-43, 5-[(3-methyl-2-oxopyridin-1(2H)-yl)methyl]-5-(4-vinylphenyl)imidazolidine-2,4-dione]
27 | < 0.1 µM | COc1ccccc1Oc1ccc(C2(Cn3cccc(C)c3=O)NC(=O)NC2=O)cc1F (centres unmarked) [Compound I-114]
28 | < 0.1 µM | O=C1NC(=O)C(Cn2cccc(Cl)c2=O)(c2ccc(Cc3ccccc3)cc2)N1 (centres unmarked) [Compound I-150]
29 | 0.1 to 1 µM | COc1cc(C)c(Cl)cc1C1(Cn2cccc(C)c2=O)NC(=O)NC1=O (centres unmarked) [Compound I-70]
30 | < 0.1 µM | N#Cc1ccc(C2(Cn3cccc(Cl)c3=O)NC(=O)NC2=O)cc1 (centres unmarked) [Compound I-138]
31 | 0.1 to 1 µM | COc1cccn(CC2(c3ccccc3)NC(=O)NC2=O)c1=O (centres unmarked) [Compound I-143]
32 | < 0.1 µM | Cc1cccn(CC2(c3ccc(Oc4cc(F)cc(F)c4)cc3)NC(=O)NC2=O)c1=O (centres unmarked) [Compound I-99]
33 | < 0.1 µM | Cc1cccn(CC2(c3ccc(C(C)C)cc3)NC(=O)NC2=O)c1=O (centres unmarked) [Compound I-117]
34 | < 0.1 µM | Cc1cccc(Oc2ccc(C3(Cn4cccc(C)c4=O)NC(=O)NC3=O)cc2)c1 (centres unmarked) [Compound I-80]
35 | < 0.1 µM | Cc1cccn(CC2(c3ccc(-c4ccccn4)cc3)NC(=O)NC2=O)c1=O (centres unmarked) [Compound I-92]
36 | < 0.1 µM | Cc1cccn(CC2(c3ccc(Oc4ccc(F)c(F)c4)cc3)NC(=O)NC2=O)c1=O (centres unmarked) [Compound I-98]
37 | < 0.1 µM | O=C1NC(=O)C(Cn2cccc(Cl)c2=O)(c2ccc(F)cc2)N1 (centres unmarked) [Compound I-136]
38 | < 0.1 µM | O=C1NC(=O)C(Cn2cccc(F)c2=O)(c2ccc(F)cc2)N1 (centres unmarked) [Compound I-48, 5-[(3-fluoro-2-oxopyridin-1(2H)-yl)methyl]-5-(4-fluorophenyl)-imidazolidine-2,4-dione]
39 | < 0.1 µM | O=C1NC(=O)C(Cn2ccccc2=O)(c2ccc(F)c(F)c2)N1 (centres unmarked) [Compound I-155]
40 | < 0.1 µM | Cc1cccn(CC2(c3ccc(Oc4cccnc4)c(F)c3)NC(=O)NC2=O)c1=O (centres unmarked) [Compound I-122]
41 | < 0.1 µM | Cc1cccn(CC2(c3cccc(-c4ccccc4)c3)NC(=O)NC2=O)c1=O (centres unmarked) [Compound I-96]
42 | < 0.1 µM | Cc1cccn(CC2(c3ccc(Oc4ccccc4F)c(F)c3)NC(=O)NC2=O)c1=O (centres unmarked) [Compound I-104]
43 | < 0.1 µM | O=C1NC(=O)C(Cn2cccc(F)c2=O)(c2ccccc2)N1 (centres unmarked) [Compound I-132]
44 | < 0.1 µM | Cc1cccn(CC2(c3cccc(OCc4ccccc4)c3)NC(=O)NC2=O)c1=O (centres unmarked) [Compound I-58]
45 | < 0.1 µM | Cc1cccn(CC2(c3ccc(C(C)(C)C)cc3)NC(=O)NC2=O)c1=O (centres unmarked) [Compound I-17, 5-[4-(tert-butyl)phenyl]-5-[(3-methyl-2-oxopyridin-1(2H)-yl)methyl]imidazolidine-2,4-dione]
46 | < 0.1 µM | COc1ccc(C2(Cn3cccc(C)c3=O)NC(=O)NC2=O)cc1OC (centres unmarked) [Compound I-16, 5-(3,4-dimethoxyphenyl)-5-[(3-methyl-2-oxopyridin-1(2H)-yl)methyl]imidazolidine-2,4-dione]
47 | < 0.1 µM | COc1ccc(C2(Cn3cccc(C)c3=O)NC(=O)NC2=O)cc1 (centres unmarked) [Compound I-2, 5-(4-methoxyphenyl)-5-[(3-methyl-2-oxopyridin-1(2H)-yl)methyl]imidazolidine-2,4-dione]
48 | < 0.1 µM | Cc1cc(C2(Cn3cccc(C)c3=O)NC(=O)NC2=O)ccc1OC1CCCCC1 (centres unmarked) [Compound I-131]
49 | 0.1 to 1 µM | COc1ccccc1C1(Cn2cccc(C)c2=O)NC(=O)NC1=O (centres unmarked) [Compound I-60]
50 | < 0.1 µM | Cc1cccn(CC2(c3ccc(C#CC(C)(C)C)cc3)NC(=O)NC2=O)c1=O (centres unmarked) [Compound I-33, 5-[4-(3,3-dimethylbut-1-yn-1-yl)phenyl]-5-[(3-methyl-2-oxopyridin-1(2H)-yl)methyl]imidazolidine-2,4-dione]
51 | 0.1 to 1 µM | Cc1cccn(CC2(c3ccccc3OCc3ccccc3)NC(=O)NC2=O)c1=O (centres unmarked) [Compound I-68]
52 | < 0.1 µM | Cc1cccn(CC2(c3ccc4sccc4c3)NC(=O)NC2=O)c1=O (centres unmarked) [Compound I-23, 5-(benzo[b]thiophen-5-yl)-5-[(3-methyl-2-oxopyridin-1(2H)-yl)methyl]imidazolidine-2,4-dione]
53 | < 0.1 µM | Cc1cccn(CC2(c3ccc(C#Cc4ccccn4)cc3)NC(=O)NC2=O)c1=O (centres unmarked) [Compound I-110]
